Experiment [1] relates to HIF1a protein in H9c2 rat cardiomyocytes. Description: Cell-based HIF-alpha stabilization assay (inhibition of PHD in cells). The note with it: 24 hrs compound incubation, HIF1a protein by ELISA; for EC50: Rattus norvegicus, H9c2, 24 h, read-out: Inhibition of PHD in cells (pEC50) (converted). In a few lines: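 Rat H9c2 cardiomyocytes, cultured 24 h, were treated 24 h with an 11-point serial dilution of compound. HIF1a in whole-cell lysates was quantified by ELISA as % of the maximal desferrioxamine response. EC50 came from curve fitting; EC50pos is the concentration reaching 50% of the desferrioxamine maximum.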
On the technique in general: An ELISA detects its analyte on a solid surface through an enzyme-linked reagent.

Experiment [2] concerns the target PHD2 enzyme (residues 181-417) (Homo sapiens (Human), UniProt Q9GZT9). Description: Inhibition of PHD enzyme (LC/MS peptide hydroxylation assay). The experiment is classed as biochemical. The note with it: PHD2 (residues 181-417) 5 nM, 60 min pre-incubation, -log(IC50), IC50 molar. In a few lines:
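PHD2 (5 nM final) preincubated with inhibitor 60 min at RT in 50 mM HEPES, 50 mM KCl, 0.5 mM TCEP, 2 uM FeCl2, 0.1 mg/ml BSA, pH 7.3. Reaction started with biotin-peptide (1 uM), 2-oxoglutarate (2 uM), ascorbate (1 mM), quenched at 60 min; hydroxylated product by LC/MS, reported as pIC50.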

Sequence of PHD2 enzyme (residues 181-417) (Q9GZT9 181-417): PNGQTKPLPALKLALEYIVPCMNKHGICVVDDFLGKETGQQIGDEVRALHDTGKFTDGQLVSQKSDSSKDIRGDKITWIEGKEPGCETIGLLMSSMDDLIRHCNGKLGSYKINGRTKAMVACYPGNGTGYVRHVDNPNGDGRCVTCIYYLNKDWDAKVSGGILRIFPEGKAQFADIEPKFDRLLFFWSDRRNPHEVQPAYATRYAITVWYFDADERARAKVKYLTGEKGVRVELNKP

Regarding `CC(NC(=O)c1ccc(-n2ncc(-c3ccc(C#N)cc3)c2O)nc1)C1CC1` (stereo in doubt) [Example 260, (S)-6-(4-(4-cyanophenyl)-5-hydroxy-1H-pyrazol-1-yl)-N-(1-cyclopropylethyl)nicotinamide], in experiment [1], the “Inhibition of PHD in cells (pEC50)” value was found to be 6.23. In addition, the “PHD Inhibition (pIC50)” value in experiment [2] worked out at 7.17.

For the compound `Cc1cc(C#N)ccc1-c1cnn(-c2ccc(C(=O)N(C)C)cn2)c1O` [Example 301, 6-(4-(4-cyano-2-methylphenyl)-5-hydroxy-1H-pyrazol-1-yl)-N,N-dimethylnicotinamide], the EC50 in experiment [1] was 251 nM. Further, the “PHD Inhibition (pIC50)” value in experiment [2] is on record as 8.67.

Consider `Cc1cc(C#N)ccc1-c1cnn(-c2ccc(C(=O)N3CC[C@@H](N(C)C)C3)cn2)c1O` [Example 413, (R)-4-(1-(5-(3-(dimethylamino)pyrrolidine-1-carbonyl)pyridin-2-yl)-5-hydroxy-1H-pyrazol-4-yl)-3-methylbenzonitrile], for which the EC50 in experiment [1] is 2090 nM. For the same compound, the “PHD Inhibition (pIC50)” value in experiment [2] was found to be 8.10.

On to `COc1cc(-c2cnn(-c3ccc(C(=O)NC4CCN(C)CC4)cn3)c2O)ccn1` [Example 33, 6-(5-hydroxy-4-(2-methoxypyridin-4-yl)-1H-pyrazol-1-yl)-N-(1-methylpiperidin-4-yl)nicotinamide], for which the EC50 in experiment [1] was 1170 nM. Moreover, the “PHD Inhibition (pIC50)” value in experiment [2] was found to be 7.4.

Regarding `COCCCNC(=O)c1ccc(-n2ncc(-c3ccc(C#N)c(F)c3C)c2O)nc1` [Example 406, 6-(4-(4-cyano-3-fluoro-2-methylphenyl)-5-hydroxy-1H-pyrazol-1-yl)-N-(3-methoxypropyl)nicotinamide], the EC50 in experiment [1] is 191 nM. Further, in experiment [2], the “PHD Inhibition (pIC50)” value amounted to 8.49.

With `Cc1c(-c2cnn(-c3ccc(C(=O)N4CCN(C5CC5)CC4)cn3)c2O)ccc(C#N)c1F` [Example 307, 4-(1-(5-(4-cyclopropylpiperazine-1-carbonyl)pyridin-2-yl)-5-hydroxy-1H-pyrazol-4-yl)-2-fluoro-3-methylbenzonitrile], the EC50 in experiment [1] is 2340 nM. Further, the “PHD Inhibition (pIC50)” value in experiment [2] turned out to be 8.39.

Regarding `CNC(=O)c1ccc(-n2ncc(-c3ccnc(OC)c3)c2O)nc1` [Example 40, 6-(5-hydroxy-4-(2-methoxypyridin-4-yl)-1H-pyrazol-1-yl)-N-methylnicotinamide], the EC50 in experiment [1] is 977 nM. In addition, the “PHD Inhibition (pIC50)” value in experiment [2] is on record as 7.9.

Turning to `Cc1cc(C#N)ccc1-c1cnn(-c2ccc(C(=O)NCCCCO)cn2)c1O` [Example 130, 6-(4-(4-cyano-2-methylphenyl)-5-hydroxy-1H-pyrazol-1-yl)-N-(4-hydroxybutyl)nicotinamide], the EC50 in experiment [1] was 417 nM. Also, the “PHD Inhibition (pIC50)” value in experiment [2] was found to be 7.27.

For the compound `Cc1cc(C#N)ccc1-c1cnn(-c2ccc(C(=O)NC(C)C)cn2)c1O` [Example 128, 6-(4-(4-cyano-2-methylphenyl)-5-hydroxy-1H-pyrazol-1-yl)-N-isopropylnicotinamide], in experiment [1], the EC50 was 145 nM. In experiment [2], the “PHD Inhibition (pIC50)” value is 7.04.

Turning to `CN(C)CC1CCN(C(=O)c2ccc(-n3ncc(-c4ccc(C#N)cc4)c3O)nc2)C1` (centres unmarked) [Example 353, 4-(1-(5-(3-((dimethylamino)methyl)pyrrolidine-1-carbonyl)pyridin-2-yl)-5-hydroxy-1H-pyrazol-4-yl)benzonitrile], in experiment [1], the EC50 was 3550 nM. For the same compound, the “PHD Inhibition (pIC50)” value in experiment [2] is 7.25.

With `COCC(C)CNC(=O)c1ccc(-n2ncc(-c3ccc(C#N)cc3C)c2O)nc1` (centres unmarked) [Example 182, 6-(4-(4-cyano-2-methylphenyl)-5-hydroxy-1H-pyrazol-1-yl)-N-(3-methoxy-2-methylpropyl)nicotinamide], the EC50 in experiment [1] is 309 nM. Also, the “PHD Inhibition (pIC50)” value in experiment [2] is listed as 8.1.

For the compound `N#Cc1cnn(-c2cnn(-c3ccc(C(=O)NCC4CCOCC4)cn3)c2O)c1` [Example 158, 6-(4-cyano-5′-hydroxy-1′H-[1,4′-bipyrazol]-1′-yl)-N-((tetrahydro-2H-pyran-4-yl)methyl)nicotinamide], the EC50 in experiment [1] is 9550 nM. Moreover, the “PHD Inhibition (pIC50)” value in experiment [2] was determined as 6.71.

Take `Cc1cc(C#N)ccc1-c1cnn(-c2ccc(C(=O)NCCC3CCCCO3)cn2)c1O` (centres unmarked) [Example 206, 6-(4-(4-cyano-2-methylphenyl)-5-hydroxy-1H-pyrazol-1-yl)-N-(2-(tetrahydro-2H-pyran-2-yl)ethyl)nicotinamide]: the EC50 in experiment [1] was 110 nM. Further, the “PHD Inhibition (pIC50)” value in experiment [2] is reported as 8.2.

With `CNC(=O)c1ccc(-n2ncc(-c3ccc(C#N)cc3)c2O)nc1` [Example 150, 6-(4-(4-cyanophenyl)-5-hydroxy-1H-pyrazol-1-yl)-N-methylnicotinamide], the EC50 in experiment [1] was 2510 nM. Besides, the “PHD Inhibition (pIC50)” value in experiment [2] worked out at 7.58.

Consider `COc1cc(-c2cnn(-c3ccc(C(=O)NCCC(C)OC)cn3)c2O)ccn1` (centres unmarked) [Example 50, 6-(5-hydroxy-4-(2-methoxypyridin-4-yl)-1H-pyrazol-1-yl)-N-(3-methoxybutyl)nicotinamide], for which, in experiment [1], the EC50 is 871 nM. Moreover, in experiment [2], the “PHD Inhibition (pIC50)” value amounted to 8.1.

Consider `Cc1cc(C#N)ccc1-c1cnn(-c2ccc(C(=O)N3CCC(CN(C)C)CC3)cn2)c1O` [Example 419, 4-(1-(5-(4-((dimethylamino)methyl)piperidine-1-carbonyl)pyridin-2-yl)-5-hydroxy-1H-pyrazol-4-yl)-3-methylbenzonitrile], for which, in experiment [1], the EC50 is 631 nM. Moreover, the “PHD Inhibition (pIC50)” value in experiment [2] was found to be 7.98.

With `CC1(NC(=O)c2ccc(-n3ncc(-c4ccc(C#N)cc4)c3O)nc2)CC1` [Example 198, 6-(4-(4-cyanophenyl)-5-hydroxy-1H-pyrazol-1-yl)-N-(1-methylcyclopropyl)nicotinamide], in experiment [1], the EC50 was 741 nM. Besides, the “PHD Inhibition (pIC50)” value in experiment [2] stood at 7.35.

Take `COCCCCNC(=O)c1ccc(-n2ncc(-c3ccc(C#N)cc3C)c2O)nc1` [Example 179, 6-(4-(4-cyano-2-methylphenyl)-5-hydroxy-1H-pyrazol-1-yl)-N-(4-methoxybutyl)nicotinamide]: in experiment [1], the EC50 is 123 nM. Moreover, the “PHD Inhibition (pIC50)” value in experiment [2] is 8.3.

Regarding `CCCN1CCN(C(=O)c2ccc(-n3ncc(-c4ccc(C#N)cc4C)c3O)nc2)CC1` [Example 283, 4-(5-hydroxy-1-(5-(4-propylpiperazine-1-carbonyl)pyridin-2-yl)-1H-pyrazol-4-yl)-3-methylbenzonitrile], the “Inhibition of PHD in cells (pEC50)” value in experiment [1] worked out at 5.72. The “PHD Inhibition (pIC50)” value in experiment [2] is on record as 8.60.

For `CCN1CCN(C(=O)c2ccc(-n3ncc(-c4cc(F)c(C#N)cc4C)c3O)nc2)[C@@H](C)C1` [Example 433, (S)-4-(1-(5-(4-ethyl-2-methylpiperazine-1-carbonyl)pyridin-2-yl)-5-hydroxy-1H-pyrazol-4-yl)-2-fluoro-5-methylbenzonitrile], the EC50 in experiment [1] is 363 nM. Further, the “PHD Inhibition (pIC50)” value in experiment [2] is given as 8.20.

For `CCN(C)[C@H]1CCCN(C(=O)c2ccc(-n3ncc(-c4ccc(C#N)cc4C)c3O)nc2)C1` [Example 384, (S)-4-(1-(5-(3-(ethyl(methyl)amino)piperidine-1-carbonyl)pyridin-2-yl)-5-hydroxy-1H-pyrazol-4-yl)-3-methylbenzonitrile], the EC50 in experiment [1] was 1510 nM. Besides, the “PHD Inhibition (pIC50)” value in experiment [2] is given as 7.93.

As for `COc1cc(-c2cnn(-c3ccc(C(=O)NCC4CCOCC4)cn3)c2O)c(F)cn1` [Example 254, 6-(4-(5-fluoro-2-methoxypyridin-4-yl)-5-hydroxy-1H-pyrazol-1-yl)-N-((tetrahydro-2H-pyran-4-yl)methyl)nicotinamide], in experiment [1], the EC50 was 2750 nM. The “PHD Inhibition (pIC50)” value in experiment [2] is recorded as 8.

Take `COC1CCN(C(=O)c2ccc(-n3ncc(-c4ccc(C#N)cc4C)c3O)nc2)CC1` [Example 249, 4-(5-hydroxy-1-(5-(4-methoxypiperidine-1-carbonyl)pyridin-2-yl)-1H-pyrazol-4-yl)-3-methylbenzonitrile]: in experiment [1], the EC50 is 275 nM. In addition, in experiment [2], the “PHD Inhibition (pIC50)” value is reported as 8.3.

With `Cc1cc(C#N)ccc1-c1cnn(-c2ccc(C(=O)N3CCN(C)CC3)cn2)c1O` [Example 290, 4-(5-hydroxy-1-(5-(4-methylpiperazine-1-carbonyl)pyridin-2-yl)-1H-pyrazol-4-yl)-3-methylbenzonitrile], the EC50 in experiment [1] was 912 nM. For the same compound, the “PHD Inhibition (pIC50)” value in experiment [2] came to 8.33.

For `COc1cc(-c2cnn(-c3ccc(C(=O)NCCCO)cn3)c2O)ccn1` [Example 26, 6-(5-hydroxy-4-(2-methoxypyridin-4-yl)-1H-pyrazol-1-yl)-N-(3-hydroxypropyl)nicotinamide], in experiment [1], the EC50 was 3630 nM. Also, the IC50 in experiment [2] (read-out: PHD Inhibition (pIC50) (converted)) was 97.7 nM.

As for `N#Cc1ccc(-c2cnn(-c3ccc(C(=O)NCCCN4CCOCC4)cn3)c2O)cc1` [Example 91, 6-(4-(4-cyanophenyl)-5-hydroxy-1H-pyrazol-1-yl)-N-(3-morpholinopropyl)nicotinamide], in experiment [1], the EC50 was 933 nM. For the same compound, the “PHD Inhibition (pIC50)” value in experiment [2] turned out to be 7.18.

Consider `CCN1CCN(C(=O)c2ccc(-n3ncc(-c4ccc(C#N)cc4C)c3O)nc2)C[C@H]1C` [Example 388, (R)-4-(1-(5-(4-ethyl-3-methylpiperazine-1-carbonyl)pyridin-2-yl)-5-hydroxy-1H-pyrazol-4-yl)-3-methylbenzonitrile], for which the EC50 in experiment [1] was 513 nM. The “PHD Inhibition (pIC50)” value in experiment [2] is given as 8.25.

As for `N#Cc1ccc(-c2cnn(-c3ccc(C(=O)NCC4CCOCC4)cn3)c2O)cc1F` [Example 189, 6-(4-(4-cyano-3-fluorophenyl)-5-hydroxy-1H-pyrazol-1-yl)-N-((tetrahydro-2H-pyran-4-yl)methyl)nicotinamide], in experiment [1], the EC50 is 4680 nM. Further, in experiment [2], the “PHD Inhibition (pIC50)” value is 7.49.

(Values after US10407409B2, “6-(5-hydroxy-1H-pyrazol-1-yl)nicotinamide inhibitors of PHD” (Takeda Pharmaceutical Company Limited, priority 2013, dated 2019).)
